Experimental data from patent publication US8039444B2, “Antisense permeation enhancers” (Isis Pharmaceuticals, Inc., priority 2001, dated 2011).

Conditions: monkey, not told, po

Sequence: GCTGATTAGAGAGAGGTCCC (GCTGATTAGAGAGAGGTCCC; chemistry not given here) [antisense oligonucleotide]
- permeability: poor permeability
